What follows are molecules tested on human cytomegalovirus (HCMV) (assay: Antiviral activity against HCMV in vitro (virus yield / replication assay, IE protein readout)). Details: Human betaherpesvirus 5, 96 h, read-out: HCMV IC50.
Format: cell-based
Method: Assessing Antiviral Activity Against Human Cytomegalovirus (HCMV)
To assess their antiviral activity, some compounds were tested against human cytomegalovirus (HCMV) in vitro. Human MRCS cells were grown in Dulbecco's Modified Eagle Medium (DMEM) supplemented with 10% fetal bovine serum (FBS) and infected with an HCMV variant expressing GFP tagged pUL99 (the product of late viral UL99 gene) at a multiplicity of 1 infectious unit (IU) per cell. One hour later, medium of the cells was replaced with fresh medium containing the indicated compounds at 50, 25, 12.5, 6.25, 3.13, 1.56, 0.78, 0.39 μM or the carrier in which the compounds are dissolved (DMSO). Final concentration of DMSO was 0.5% in each treatment. Virus yield in the culture supernatant was determined at 96 hours after infection by infecting fresh MRCS cells and assaying viral IE1 protein expression. Results were plotted using either Prism Software or CDD Vault (CDD Vault was developed by Collaborative Drug Discovery, Inc., 1633 Bayshore Hwy, Suite 342, Burlingame, Calif. 94010) in order to calculate IC50s.
Alternatively, antiviral efficacy of some compounds was assessed by inhibition of HCMV replication during in vitro replication assays. Briefly, confluent monolayers of MRCS fibroblasts in a 96 well plate format (˜1.0×10^4 cells/well) were infected with an AD169 strain of HCMV for one hour. After the initial incubation hour, virus containing media was removed and 100 ul of media with sequential dilutions of FORGE compounds added to each well. The concentrations of the FORGE compounds were 50 μM, 25 μM, 12.5 μM, 6.25 μM, 3.125 μM, 1.56 μM, and 0.78125 μM as well as a vehicle control (0.5% DMSO). The concentration of DMSO was constant between all conditions. Assays were performed in duplicate. Infected plates were returned to the incubator and the viral infection was allowed to progress for four days. On the fourth day, 50 μL of cell free supernatant was collected from each well and used to infect a new 96 well plate seeded with a confluent monolayer of MRCS fibroblasts along with 50 μL of media to bring the total volume to 100 μL. The next day the media was removed and the infected monolayer was fixed with cold methanol, and Immediate Early proteins were detected by immunofluorescence assays to quantify the number of cells that were infected with HCMV. IE gene expression was quantified within five random fields within each well and corresponding numbers were utilized to determine viral replication. Results from each well were normalized to the vehicle control well so as to allow a percent reduction from no drug treatment to be calculated. Results were plotted using either Prism Software or CDD Vault in order to calculate IC50s.
Molecule `OC(c1ccc2nccnc2c1)c1cnc(N2CCc3ccccc3C2)s1` (centres unmarked) [Example 6] has an IC50 of 5.1 µM.
In the case of `CC(C)c1ccc(CNc2ncc(Cc3cccc(-n4cccn4)c3)s2)cc1` [Example 32], the IC50 is reported as > 50 µM.
Molecule `C=C(c1ccc(-n2cccn2)cc1)c1cnc(N2CCc3ccccc3C2)s1` [Example 14] has an IC50 of 28.7 µM.
For `CC(c1ccc(-n2cccn2)cc1)c1cnc(N2CCc3ccccc3C2)s1` (centres unmarked) [Example 13], the IC50 was 3.6 µM.
In the case of `c1cc(Cc2cnc(N3CCC4OCCCC4C3)s2)cc(-n2cccn2)c1` (centres unmarked) [Example 33], the IC50 is reported as 11.5 µM.
`C=C(c1ccc2nccnc2c1)c1cnc(N2CCc3ccccc3C2)s1` [Example 3] was tested, and the IC50 was > 50 µM.
`c1ccc(CNc2ncc(Cc3cccc(-n4cccn4)c3)s2)cc1` [Example 29] was tested, and the IC50 was > 50 µM.
Molecule `CC(c1cccc(-n2cccn2)c1)c1cnc(N2CCc3ccc(C#N)cc3C2)s1` (centres unmarked) [Example SBX082] has an IC50 of 7.3 µM.
`CC(c1cnc(N2CCc3ccccc3C2)s1)c1c[nH]c2ccccc12` (centres unmarked) [Example 9] was tested, and the IC50 was 12.7 µM.
For `CC(c1cccc(-n2cccn2)c1)c1cnc(N2CCc3ccc(Br)cc3C2)s1` (centres unmarked) [Example SBX084], the IC50 was 3.8 µM.
With `CC(c1ccc(N2CCCCC2)cc1)c1cnc(N2CCc3ccccc3C2)s1` (centres unmarked) [Example 15] the IC50 was > 25 µM.
In the case of `C=C(c1ccc2nccnc2c1)c1cnc(NCc2ccccc2)s1` [Example 12], the IC50 is reported as > 50 µM.
With `c1ccc2c(c1)CCN(c1ncc(Cc3ccc4nccnc4c3)s1)C2` [Example 4] the IC50 was 5.6 µM.
`CC(O)(c1ccc2nccnc2c1)c1cnc(-c2cnc(Cl)s2)s1` (centres unmarked) [Example 1] was tested, and the IC50 was 21.4 µM.
`c1ccc2c(c1)CCCN2c1ncc(Cc2ccc(-n3cccn3)cc2)s1` [Example 23] was tested, and the IC50 was > 50 µM.
Work on `c1cnn(-c2ccc(Cc3cnc(N4CCOCC4)s3)cc2)c1` [Example 27] yielded an IC50 of 10.3 µM.
Molecule `CC(c1cccc(-n2cccn2)c1)c1cnc(N2CCc3ccc(C(N)=O)cc3C2)s1` (centres unmarked) [Example SBX088] has an IC50 of 1.6 µM.
`CC(c1cccnc1)c1cnc(N2CCc3ccccc3C2)s1` (centres unmarked) [Example 8] gave an IC50 of 16.4 µM.
`CC(C)c1ccc(CNc2ncc(Cc3ccc(-n4cccn4)cc3)s2)cc1` [Example 24] was tested, and the IC50 was > 50 µM.
With `c1cc(Cc2cnc(N3CCCc4ccccc43)s2)cc(-n2cccn2)c1` [Example 31] the IC50 was > 50 µM.
In the case of `CC(c1cccc(-n2cccn2)c1)c1cnc(N2CCc3ccccc3C2)s1` (centres unmarked) [Example 18], the IC50 is reported as 1.6 µM.
With `CC(Nc1ncc(Cc2ccc(-n3cccn3)cc2)s1)c1ccccc1` (centres unmarked) [Example 26] the IC50 was > 50 µM.
`c1cc(Cc2cnc(N3CCc4ccccc4C3)s2)cc(-n2cccn2)c1` [Example 20] showed an IC50 of 8.9 µM.
`c1ccc(CNc2ncc(Cc3ccc(-n4cccn4)cc3)s2)cc1` [Example 21] was tested, and the IC50 was > 50 µM.
`CC(C)OC1CN(c2ncc(Cc3cccc(-n4cccn4)c3)s2)C1` [Example 30] showed an IC50 of 12 µM.
`CC(c1ccc(-c2ncccn2)cc1)c1cnc(N2CCc3ccccc3C2)s1` (centres unmarked) [Example 17] showed an IC50 of 4.2 µM.
With `O=C(c1ccc2nccnc2c1)c1cnc(N2CCc3ccccc3C2)s1` [Example 5] the IC50 was > 50 µM.
`c1cc(Cc2cnc(N3CCOCC3)s2)cc(-n2cccn2)c1` [Example 35] was tested, and the IC50 was > 27 µM.
With `CC(c1ccccc1)c1cnc(N2CCc3ccccc3C2)s1` (centres unmarked) [Example 7] the IC50 was > 50 µM.
With `N#Cc1ccc2c(c1)CN(c1ncc(Cc3cccc(-n4cccn4)c3)s1)CC2` [Example 36] the IC50 was 3.3 µM.
Work on `c1cnn(-c2ccc(Cc3cnc(N4CCC5OCCCC5C4)s3)cc2)c1` (centres unmarked) [Example 25] yielded an IC50 of 11 µM.
In the case of `CC(c1ccc2nccnc2c1)c1cnc(N2CCC(Cc3ccccc3)CC2)s1` (centres unmarked) [Example 11], the IC50 is reported as > 25 µM.
`CC(C)OC1CN(c2ncc(Cc3ccc(-n4cccn4)cc3)s2)C1` [Example 22] was tested, and the IC50 was > 50 µM.
For `CC(Nc1ncc(Cc2cccc(-n3cccn3)c2)s1)c1ccccc1` (centres unmarked) [Example 34], the IC50 was > 50 µM.
In the case of `c1ccc2c(c1)CCN(c1ncc(Cc3ccc(-n4cccn4)cc3)s1)C2` [Example 16], the IC50 is reported as 12.5 µM.
For `CC(O)(c1ccc2nccnc2c1)c1cnc(N2CCc3ccccc3C2)s1` (centres unmarked) [Example 2], the IC50 was 24 µM.
In the case of `COC(c1cccc(-n2cccn2)c1)c1cnc(N2CCc3ccc(C(N)=O)cc3C2)s1` (centres unmarked) [Example SBX087], the IC50 is reported as 1.4 µM.
`CC(c1cccc(-n2ccnc2)c1)c1cnc(N2CCc3ccc(C#N)cc3C2)s1` (centres unmarked) [Example SBX080] gave an IC50 of 4.9 µM.
`CC(c1ccc2nccnc2c1)c1cnc(N2CCC(c3ccccc3)C2)s1` (centres unmarked) [Example 10] was tested, and the IC50 was > 25 µM.
`C=C(c1cccc(-n2cccn2)c1)c1cnc(N2CCc3ccccc3C2)s1` [Example 19] was tested, and the IC50 was 7 µM.
In the case of `N#Cc1ccc2c(c1)CN(c1ncc(Cc3ccc(-n4cccn4)cc3)s1)CC2` [Example 28], the IC50 is reported as 9.7 µM.

— patent US11358961B2, “Anti-HCMV compositions and methods” (Evrys Bio, LLC, priority 2014, dated 2022)
